Experimental data from PubChem BioAssay (NCI).
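Compound exposure: 48 hours, 5 concentrations, 96-well plates. TGI: concentration producing complete growth inhibition.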

Assays:
Assay in all cases: growth of human tumour cells (NCI), 48 h
[1] = system: DU-145 prostate
[2] = system: KM12 colon
[3] = system: LOX IMVI melanoma
[4] = system: MALME-3M melanoma
[5] = system: MDA-MB-231 breast
[6] = system: NCI-H460 lung
[7] = system: PC-3 prostate
[8] = system: SF-268 CNS
[9] = system: SK-MEL-5 melanoma
[10] = system: UACC-257 melanoma
[11] = system: SR leukemia

| Compound | TGI [1] | TGI [2] | TGI [3] | TGI [4] | TGI [5] | TGI [6] | TGI [7] | TGI [8] | TGI [9] | TGI [10] | TGI [11] |
| --- | --- | --- | --- | --- | --- | --- | --- | --- | --- | --- | --- |
| Cc1ccc(C(=O)Nc2ccc(CP(=O)(O)O)cc2CP(=O)(O)O)cc1NC(=O)c1cccc(N)c1 | > 100 µM | > 100 µM | > 100 µM | > 100 µM | > 100 µM | > 100 µM | > 100 µM | > 100 µM | > 100 µM | > 100 µM | – |
| Cc1nc(-c2ccc([N+](=O)[O-])cc2)cn2c1nc1ccccc12 | > 100 µM | > 100 µM | > 100 µM | > 100 µM | > 100 µM | > 100 µM | > 100 µM | > 100 µM | – | > 100 µM | > 100 µM |
| CC(C)(C)c1ccc2c(c1)CNCCNCc1cc(C(C)(C)C)ccc1OCC1(CO2)COc2ccc(C(C)(C)C)cc2CNCCNCc2cc(C(C)(C)C)ccc2OC1 | 3.15 µM | 0.933 µM | > 100 µM | 2.8 µM | 0.623 µM | 0.609 µM | 2.93 µM | 5.12 µM | 3.37 µM | 3 µM | – |
| COc1ccc(-n2c(=O)c3[nH]cnc3n(-c3ccc(OC)cc3)c2=S)cc1 | > 100 µM | > 100 µM | > 100 µM | – | > 100 µM | > 100 µM | > 100 µM | > 100 µM | > 100 µM | > 100 µM | > 100 µM |
| Cc1nnc2n1N=C(c1cc(F)c(Cl)cc1Cl)/C(=C/c1ccc(Cl)cc1)S2 | 48.6 µM | 25.4 µM | 28.3 µM | 58.9 µM | 47.6 µM | 38.9 µM | 80.6 µM | > 100 µM | 41.3 µM | 44.6 µM | – |
| c1ccc2c(c1)OC(N1CCCC1)c1cnc(N3CCCC3)nc1-2 (configuration not stated) | > 100 µM | > 100 µM | > 100 µM | > 100 µM | > 100 µM | > 100 µM | > 100 µM | > 100 µM | – | 40 µM | > 100 µM |
| CC(O[Si](c1ccccc1)(c1ccccc1)C(C)(C)C)[C@H](NC(=O)OC(C)(C)C)C(=O)O[Si](c1ccccc1)(c1ccccc1)C(C)(C)C (some centres not stated) | 25.6 µM | 24.3 µM | – | 34.3 µM | – | 25.5 µM | 20.5 µM | 31.1 µM | 30.9 µM | 28.8 µM | 82 µM |
| COC(=O)CC(=O)C[P+](c1ccccc1)(c1ccccc1)c1ccccc1 | – | > 218 µM | > 218 µM | > 218 µM | – | > 218 µM | – | > 218 µM | > 218 µM | > 218 µM | > 218 µM |
| O=C(/C=C/c1ccc(O)c([N+](=O)[O-])c1)CC(=O)/C=C/c1ccc(O)c([N+](=O)[O-])c1 | > 100 µM | 97.6 µM | 27.5 µM | – | 68 µM | > 100 µM | > 100 µM | > 100 µM | > 100 µM | > 100 µM | – |
| CCN(CC)CCc1c2c(nc3ccccc13)C(=O)c1cccnc1C2=O | 1.84 µM | 6.57 µM | 2.31 µM | 4.49 µM | 6.72 µM | – | 18.6 µM | > 100 µM | 1.34 µM | 2.91 µM | 0.993 µM |
| N.N.N.O=[N+]([O-])[O-].O=[N+]([O-])[O-].O=[N+]([O-])[O-].O=[N+]([O-])[O-].[Co+3] | – | > 100 µM | > 100 µM | > 100 µM | – | > 100 µM | – | > 100 µM | > 100 µM | > 100 µM | – |
| CC1(C)CC(/C=C2/OC(=O)c3ccccc32)=C(C#N)C(=O)O1 | – | > 100 µM | > 100 µM | > 100 µM | – | > 100 µM | – | > 100 µM | > 100 µM | > 100 µM | > 100 µM |
| CSc1nc(Cl)c2c(n1)Sc1nc3cc4c(cc3n1C2O)OCCO4 (configuration not stated) | 15.9 µM | > 100 µM | 0.392 µM | 32.6 µM | 34.3 µM | 2.39 µM | 65.2 µM | 80.3 µM | – | 36.1 µM | – |
| COc1cc(O)c(/C=N/N=C(\N)NO)c(OC)c1 | > 10 µM | > 10 µM | > 10 µM | > 10 µM | > 10 µM | > 10 µM | > 10 µM | > 10 µM | > 10 µM | > 10 µM | – |
| CC1(Cl)C(=O)NC(=O)N(C2CC(N=[N+]=[N-])C(CO)O2)C1N=[N+]=[N-] (configuration not stated) | – | > 100 µM | > 100 µM | > 100 µM | – | > 100 µM | – | > 100 µM | > 100 µM | > 100 µM | – |
| c1ccc(C2C3=C(Nc4ncnn42)c2ccccc2C3)cc1 (configuration not stated) | – | > 100 µM | 73.2 µM | > 100 µM | – | > 100 µM | – | > 100 µM | > 100 µM | > 100 µM | – |
| N=C1CSC2=NC3=C(CCC/C3=C\c3ccccc3)C(c3ccccc3)N12 (configuration not stated) | – | 13 µM | 4.96 µM | 39.3 µM | – | 14.7 µM | – | 32.9 µM | 19.3 µM | 30 µM | – |
| Cn1cc2ccccc2c1-c1nc(N)nc(F)n1 | – | > 100 µM | > 100 µM | > 100 µM | – | > 100 µM | – | > 100 µM | > 100 µM | > 100 µM | > 100 µM |
| COC(=O)C(CCC#N)(CCC#N)C(=O)OC | – | > 100 µM | > 100 µM | > 100 µM | – | > 100 µM | – | > 100 µM | > 100 µM | > 100 µM | > 100 µM |
| COc1cc2c(cc1OC)C1=Cc3cc(OC)c(OC)cc3C(C)N1C=C2 (configuration not stated) | > 100 µM | > 100 µM | – | > 100 µM | – | > 100 µM | > 100 µM | > 100 µM | > 100 µM | > 100 µM | – |
| S=C(N/N=C\C=N/NC(=S)N1CCCCC1)N1CCCCC1 | > 100 µM | > 100 µM | > 100 µM | > 35 µM | > 100 µM | > 41.5 µM | > 100 µM | > 100 µM | > 32.4 µM | > 100 µM | – |
| COC(=O)CC(C(C(=O)OC)C(=O)OC)N1C(=O)OCC1c1ccccc1 (configuration not stated) | – | > 100 µM | > 100 µM | > 100 µM | – | > 100 µM | – | > 100 µM | > 100 µM | > 100 µM | – |
| COc1cc(/C=C2/C(=O)N(C(=O)c3ccccc3O)N=C2C)cc(OC)c1OC | > 100 µM | > 100 µM | > 100 µM | > 100 µM | > 100 µM | > 100 µM | > 100 µM | > 100 µM | 33.6 µM | > 100 µM | – |
